Results taken from patent publication US20230111310A1, “CARBOXYLIC ACID DERIVATIVE-SUBSTITUTED IMINO ARYL COMPOUND, PREPARATION METHOD THEREFOR, HERBICIDAL COMPOSITION AND USE THEREOF” (Qingdao Kingagroot Chemical Compound Co., Ltd., priority 2020, published 2023).

Columns and labels:
Experiment in all cases: Weeding effect in post-emergence stage
Type in all cases: in vivo
Conditions in all cases: fresh weight control rate level
[1] = tested on: Digitaria sanguinalis
In short: (§1)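 Seeds are sown in soil-filled pots under 0.5-2 cm soil and grown 2 weeks in greenhouse. Plants at 2-3 leaves are sprayed with compound (acetone, Tween 80, 1.5 liter/ha methyl oleate EC, water) at 7.5 to 500 g/ha. Damage is rated 3 weeks later, averaging three repeats.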

[2] = tested on: Alopecurus japonicus
In short: as §1

[3] = tested on: Abutilon theophrasti
In short: as §1

[4] = tested on: Setaria viridis
In short: as §1

[5] = tested on: Eleusine indica
In short: as §1

[6] = tested on: Echinochloa crusgalli
In short: as §1

For `CCN(CC)C(=O)C(C)ON=Cc1cc(-n2c(=O)cc(C(F)(F)F)n(C)c2=O)c(F)cc1Cl` (stereo not drawn) [Compound 502], the “Weeding effect in post-emergence stage, Digitaria sanguinalis (level)” value (shortened to “Weeding effect … Digitaria sanguinalis (level)”) ([1]; Dose 15 g/ha) was 5 (Level 5: growth control rate is above 85%), the “Weeding effect in post-emergence stage, Alopecurus japonicus (level)” value (from here on “Weeding effect … Alopecurus japonicus (level)”) ([2]; Dose 15 g/ha) was 5 (Level 5: growth control rate is above 85%) and the “Weeding effect in post-emergence stage, Abutilon theophrasti (level)” value (“Weeding effect … Abutilon theophrasti (level)” below) ([3]; Dose 15 g/ha) was 5 (Level 5: growth control rate is above 85%). For the same molecule, the “Weeding effect in post-emergence stage, Setaria viridis (level)” value (shortened to “Weeding effect … Setaria viridis (level)”) ([4]; Dose 15 g/ha) was 5 (Level 5: growth control rate is above 85%), the “Weeding effect in post-emergence stage, Eleusine indica (level)” value (“Weeding effect … Eleusine indica (level)” below) ([5]; Dose 15 g/ha) was 5 (Level 5: growth control rate is above 85%) and the “Weeding effect in post-emergence stage, Echinochloa crusgalli (level)” value (from here on “Weeding effect … Echinochloa crusgalli (level)”) ([6]; Dose 15 g/ha) was 5 (Level 5: growth control rate is above 85%).
With `CC(ON=Cc1cc(-n2c(=O)cc(C(F)(F)F)n(C)c2=O)c(F)cc1Cl)C(=O)NS(=O)(=O)CCl` (stereo not drawn) [Compound 503] the “Weeding effect … Digitaria sanguinalis (level)” value ([1]; Dose 15 g/ha) was 5 (Level 5: growth control rate is above 85%), the “Weeding effect … Alopecurus japonicus (level)” value ([2]; Dose 15 g/ha) was 5 (Level 5: growth control rate is above 85%) and the “Weeding effect … Abutilon theophrasti (level)” value ([3]; Dose 15 g/ha) was 5 (Level 5: growth control rate is above 85%). For the same molecule, the “Weeding effect … Setaria viridis (level)” value ([4]; Dose 15 g/ha) was 5 (Level 5: growth control rate is above 85%), the “Weeding effect … Eleusine indica (level)” value ([5]; Dose 15 g/ha) was 5 (Level 5: growth control rate is above 85%) and the “Weeding effect … Echinochloa crusgalli (level)” value ([6]; Dose 15 g/ha) was 5 (Level 5: growth control rate is above 85%).
`COC(=O)C(C)O/N=C/c1nc(-n2c(=O)cc(C(F)(F)F)n(C)c2=O)c(F)cc1Cl` (stereo not drawn) [Compound 504] was tested, and the “Weeding effect … Digitaria sanguinalis (level)” value ([1]; Dose 15 g/ha) was 5 (Level 5: growth control rate is above 85%), the “Weeding effect … Alopecurus japonicus (level)” value ([2]; Dose 15 g/ha) was 5 (Level 5: growth control rate is above 85%) and the “Weeding effect … Abutilon theophrasti (level)” value ([3]; Dose 15 g/ha) was 5 (Level 5: growth control rate is above 85%). For the same molecule, the “Weeding effect … Setaria viridis (level)” value ([4]; Dose 15 g/ha) was 5 (Level 5: growth control rate is above 85%), the “Weeding effect … Eleusine indica (level)” value ([5]; Dose 15 g/ha) was 5 (Level 5: growth control rate is above 85%) and the “Weeding effect … Echinochloa crusgalli (level)” value ([6]; Dose 15 g/ha) was 5 (Level 5: growth control rate is above 85%).
With `COC(=O)C(C)ON=Cc1nc(-n2c(=O)n(C)c(=S)n(C)c2=O)c(F)cc1Cl` (stereo not drawn) [Compound 511] the “Weeding effect … Digitaria sanguinalis (level)” value ([1]; Dose 15 g/ha) was 5 (Level 5: growth control rate is above 85%), the “Weeding effect … Alopecurus japonicus (level)” value ([2]; Dose 15 g/ha) was 5 (Level 5: growth control rate is above 85%) and the “Weeding effect … Abutilon theophrasti (level)” value ([3]; Dose 15 g/ha) was 5 (Level 5: growth control rate is above 85%). For the same molecule, the “Weeding effect … Setaria viridis (level)” value ([4]; Dose 15 g/ha) was 5 (Level 5: growth control rate is above 85%), the “Weeding effect … Eleusine indica (level)” value ([5]; Dose 15 g/ha) was 5 (Level 5: growth control rate is above 85%) and the “Weeding effect … Echinochloa crusgalli (level)” value ([6]; Dose 15 g/ha) was 5 (Level 5: growth control rate is above 85%).
With `COC(=O)C(C)SN=Cc1cc(-n2c(=O)n(C)c(=S)n(C)c2=O)c(F)cc1Cl` (stereo not drawn) [Compound 692] the “Weeding effect … Digitaria sanguinalis (level)” value ([1]; Dose 15 g/ha) was 5 (Level 5: growth control rate is above 85%), the “Weeding effect … Alopecurus japonicus (level)” value ([2]; Dose 15 g/ha) was 5 (Level 5: growth control rate is above 85%) and the “Weeding effect … Abutilon theophrasti (level)” value ([3]; Dose 15 g/ha) was 5 (Level 5: growth control rate is above 85%). For the same molecule, the “Weeding effect … Setaria viridis (level)” value ([4]; Dose 15 g/ha) was 5 (Level 5: growth control rate is above 85%), the “Weeding effect … Eleusine indica (level)” value ([5]; Dose 15 g/ha) was 5 (Level 5: growth control rate is above 85%) and the “Weeding effect … Echinochloa crusgalli (level)” value ([6]; Dose 15 g/ha) was 5 (Level 5: growth control rate is above 85%).
`COC(=O)C(C)SN=Cc1cc(-n2c(=O)cc(C(F)(F)F)n(C)c2=O)c(F)cc1Cl` (stereo not drawn) [Compound 730] was tested, and the “Weeding effect … Digitaria sanguinalis (level)” value ([1]; Dose 15 g/ha) was 5 (Level 5: growth control rate is above 85%), the “Weeding effect … Alopecurus japonicus (level)” value ([2]; Dose 15 g/ha) was 5 (Level 5: growth control rate is above 85%) and the “Weeding effect … Abutilon theophrasti (level)” value ([3]; Dose 15 g/ha) was 5 (Level 5: growth control rate is above 85%). The “Weeding effect … Setaria viridis (level)” value ([4]; Dose 15 g/ha) was 5 (Level 5: growth control rate is above 85%), the “Weeding effect … Eleusine indica (level)” value ([5]; Dose 15 g/ha) was 5 (Level 5: growth control rate is above 85%) and the “Weeding effect … Echinochloa crusgalli (level)” value ([6]; Dose 15 g/ha) was 5 (Level 5: growth control rate is above 85%).
With `COC(=O)C(C)NN=Cc1cc(-n2c(=O)n(C)c(=S)n(C)c2=O)c(F)cc1Cl` (stereo not drawn) [Compound 881] the “Weeding effect … Digitaria sanguinalis (level)” value ([1]; Dose 30 g/ha) was 5 (Level 5: growth control rate is above 85%), the “Weeding effect … Alopecurus japonicus (level)” value ([2]; Dose 30 g/ha) was 5 (Level 5: growth control rate is above 85%) and the “Weeding effect … Abutilon theophrasti (level)” value ([3]; Dose 30 g/ha) was 5 (Level 5: growth control rate is above 85%). For the same molecule, the “Weeding effect … Setaria viridis (level)” value ([4]; Dose 30 g/ha) was 5 (Level 5: growth control rate is above 85%), the “Weeding effect … Eleusine indica (level)” value ([5]; Dose 30 g/ha) was 5 (Level 5: growth control rate is above 85%) and the “Weeding effect … Echinochloa crusgalli (level)” value ([6]; Dose 30 g/ha) was 5 (Level 5: growth control rate is above 85%).
For `CC(C)OC(=O)C(C)N(C)N=Cc1cc(-n2c(=O)n(C)c(=S)n(C)c2=O)c(F)cc1Cl` (stereo not drawn) [Compound 885], the “Weeding effect … Digitaria sanguinalis (level)” value ([1]; Dose 30 g/ha) was 5 (Level 5: growth control rate is above 85%), the “Weeding effect … Alopecurus japonicus (level)” value ([2]; Dose 30 g/ha) was 5 (Level 5: growth control rate is above 85%) and the “Weeding effect … Abutilon theophrasti (level)” value ([3]; Dose 30 g/ha) was 5 (Level 5: growth control rate is above 85%). The “Weeding effect … Setaria viridis (level)” value ([4]; Dose 30 g/ha) was 5 (Level 5: growth control rate is above 85%), the “Weeding effect … Eleusine indica (level)” value ([5]; Dose 30 g/ha) was 5 (Level 5: growth control rate is above 85%) and the “Weeding effect … Echinochloa crusgalli (level)” value ([6]; Dose 30 g/ha) was 5 (Level 5: growth control rate is above 85%).
With `COC(=O)C(C)NN=Cc1cc(-n2c(=O)cc(C(F)(F)F)n(C)c2=O)c(F)cc1Cl` (stereo not drawn) [Compound 919] the “Weeding effect … Digitaria sanguinalis (level)” value ([1]; Dose 30 g/ha) was 5 (Level 5: growth control rate is above 85%), the “Weeding effect … Alopecurus japonicus (level)” value ([2]; Dose 30 g/ha) was 5 (Level 5: growth control rate is above 85%) and the “Weeding effect … Abutilon theophrasti (level)” value ([3]; Dose 30 g/ha) was 5 (Level 5: growth control rate is above 85%). For the same molecule, the “Weeding effect … Setaria viridis (level)” value ([4]; Dose 30 g/ha) was 5 (Level 5: growth control rate is above 85%), the “Weeding effect … Eleusine indica (level)” value ([5]; Dose 30 g/ha) was 5 (Level 5: growth control rate is above 85%) and the “Weeding effect … Echinochloa crusgalli (level)” value ([6]; Dose 30 g/ha) was 5 (Level 5: growth control rate is above 85%).
`CO/N=C/c1cc(-n2c(=O)n(C)c(=S)n(C)c2=O)c(F)cc1Cl` [Control compound A, reference compound] was tested, and the “Weeding effect … Digitaria sanguinalis (level)” value ([1]; Dose 15 g/ha) was 1 (Level 1: growth control rate is greater than or equal to 5% and less than 20%), the “Weeding effect … Alopecurus japonicus (level)” value ([2]; Dose 15 g/ha) was 0 (Level 0: growth control rate is less than 5%) and the “Weeding effect … Abutilon theophrasti (level)” value ([3]; Dose 15 g/ha) was 3 (Level 3: growth control rate is greater than or equal to 40% and less than 60%). For the same molecule, the “Weeding effect … Setaria viridis (level)” value ([4]; Dose 15 g/ha) was 1 (Level 1: growth control rate is greater than or equal to 5% and less than 20%), the “Weeding effect … Eleusine indica (level)” value ([5]; Dose 15 g/ha) was 1 (Level 1: growth control rate is greater than or equal to 5% and less than 20%) and the “Weeding effect … Echinochloa crusgalli (level)” value ([6]; Dose 15 g/ha) was 0 (Level 0: growth control rate is less than 5%).
With `CCOC(=O)CO/N=C/c1cc(-n2c(=O)cc(C(F)(F)F)[nH]c2=O)ccc1Cl` [Control compound B, reference compound] the “Weeding effect … Digitaria sanguinalis (level)” value ([1]; Dose 15 g/ha) was 2 (Level 2: growth control rate is greater than or equal to 20% and less than 40%), the “Weeding effect … Alopecurus japonicus (level)” value ([2]; Dose 15 g/ha) was 1 (Level 1: growth control rate is greater than or equal to 5% and less than 20%) and the “Weeding effect … Abutilon theophrasti (level)” value ([3]; Dose 15 g/ha) was 3 (Level 3: growth control rate is greater than or equal to 40% and less than 60%). The “Weeding effect … Setaria viridis (level)” value ([4]; Dose 15 g/ha) was 2 (Level 2: growth control rate is greater than or equal to 20% and less than 40%), the “Weeding effect … Eleusine indica (level)” value ([5]; Dose 15 g/ha) was 1 (Level 1: growth control rate is greater than or equal to 5% and less than 20%) and the “Weeding effect … Echinochloa crusgalli (level)” value ([6]; Dose 15 g/ha) was 2 (Level 2: growth control rate is greater than or equal to 20% and less than 40%).
In the case of `CO/N=C/c1cc(-n2c(=O)cc(C(F)(F)F)n(N)c2=O)c(F)cc1Cl` [Control compound C, reference compound], the “Weeding effect … Digitaria sanguinalis (level)” value ([1]; Dose 15 g/ha) is reported as 2 (Level 2: growth control rate is greater than or equal to 20% and less than 40%), the “Weeding effect … Alopecurus japonicus (level)” value ([2]; Dose 15 g/ha) is reported as 1 (Level 1: growth control rate is greater than or equal to 5% and less than 20%) and the “Weeding effect … Abutilon theophrasti (level)” value ([3]; Dose 15 g/ha) is reported as 2 (Level 2: growth control rate is greater than or equal to 20% and less than 40%). For the same molecule, the “Weeding effect … Setaria viridis (level)” value ([4]; Dose 15 g/ha) was 2 (Level 2: growth control rate is greater than or equal to 20% and less than 40%), the “Weeding effect … Eleusine indica (level)” value ([5]; Dose 15 g/ha) was 1 (Level 1: growth control rate is greater than or equal to 5% and less than 20%) and the “Weeding effect … Echinochloa crusgalli (level)” value ([6]; Dose 15 g/ha) was 2 (Level 2: growth control rate is greater than or equal to 20% and less than 40%).
In the case of `CCOC(=O)CO/N=C/c1cccc(-n2c(=O)cc(C(F)(F)F)[nH]c2=O)c1` [Control compound F, reference compound], the “Weeding effect … Digitaria sanguinalis (level)” value ([1]; Dose 60 g/ha) is reported as 1 (Level 1: growth control rate is greater than or equal to 5% and less than 20%), the “Weeding effect … Alopecurus japonicus (level)” value ([2]; Dose 60 g/ha) is reported as 0 (Level 0: growth control rate is less than 5%) and the “Weeding effect … Abutilon theophrasti (level)” value ([3]; Dose 60 g/ha) is reported as 2 (Level 2: growth control rate is greater than or equal to 20% and less than 40%). For the same molecule, the “Weeding effect … Setaria viridis (level)” value ([4]; Dose 60 g/ha) was 1 (Level 1: growth control rate is greater than or equal to 5% and less than 20%), the “Weeding effect … Eleusine indica (level)” value ([5]; Dose 60 g/ha) was 1 (Level 1: growth control rate is greater than or equal to 5% and less than 20%) and the “Weeding effect … Echinochloa crusgalli (level)” value ([6]; Dose 60 g/ha) was 0 (Level 0: growth control rate is less than 5%).
